The IC50 is the midpoint of a concentration-inhibition curve.

Experimental findings from ChEMBL document CHEMBL1165939, “A structure-activity relationship study elucidating the mechanism of sequence-specific collagen recognition by the chaperone HSP47” (Bioorg Med Chem, 2010) are described below.

The target in this experiment is T1, Serpin H1 (Mus musculus, UniProt P19324).
T1 sequence (P19324 whole entry): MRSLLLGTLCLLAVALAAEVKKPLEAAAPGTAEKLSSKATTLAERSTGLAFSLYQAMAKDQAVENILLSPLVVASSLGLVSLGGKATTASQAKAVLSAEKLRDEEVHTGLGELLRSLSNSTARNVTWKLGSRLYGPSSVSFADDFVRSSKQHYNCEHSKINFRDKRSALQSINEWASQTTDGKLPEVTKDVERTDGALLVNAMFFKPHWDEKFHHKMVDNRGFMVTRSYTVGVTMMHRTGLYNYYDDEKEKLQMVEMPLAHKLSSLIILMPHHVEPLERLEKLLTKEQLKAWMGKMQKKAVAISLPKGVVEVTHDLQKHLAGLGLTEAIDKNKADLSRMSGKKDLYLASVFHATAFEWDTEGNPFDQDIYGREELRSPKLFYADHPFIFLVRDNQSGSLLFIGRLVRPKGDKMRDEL
The experiment in a line: Binding affinity to mouse recombinant HSP47 expressed in Escherichia coli JM109 after 10 mins by surface plasmon resonance assay. Background: SPR reads the build-up and loss of mass on a sensor chip optically.

Regarding `N=C(N)NCCC[C@H](NC(=O)[C@@H]1CCCN1C(=O)CNC(=O)[C@H](CCC(=O)O)NC(=O)[C@@H]1CCCN1C(=O)CNC(=O)[C@@H]1CCCN1C(=O)[C@@H]1CCCN1C(=O)CNC(=O)[C@@H]1C[C@@H](O)CN1C(=O)[C@@H]1CCCN1)C(=O)NCC(=O)N1CCC[C@H]1C(=O)N[C@@H](CCCNC(=N)N)C(=O)NCC(=O)N1CCC[C@H]1C(=O)N1CCC[C@H]1C(=O)NCC(=O)N1CCC[C@H]1C(=O)N1CCC[C@H]1C(=O)NCC(=O)N1CCC[C@H]1C(=O)N1CCC[C@H]1C(=O)NCC(=O)N1CCC[C@H]1C(=O)N1CCC[C@H]1C(=O)NCC(N)=O`, the 50% inhibitory concentration (IC50) was > 100 µM.
